Measured values reported in PubChem BioAssay AID1259407 (Chemical Carcinogenesis Research Information System (CCRIS), 2018).
Activity calls are given as the source filed them. The rule behind the calls is not given here.

Test system: CCRIS mutagenicity, Ames/micronucleus/aberration tests
Assay: CCRIS mutagenicity studies
[1] = Test System: AMES SALMONELLA TYPHIMURIUM, Strain/Indicator: TA98, Metabolic Activation: NONE, Method: PREINCUBATION
[2] = Test System: AMES SALMONELLA TYPHIMURIUM, Strain/Indicator: TA100, Metabolic Activation: NONE, Method: PREINCUBATION
[3] = Test System: AMES SALMONELLA TYPHIMURIUM, Strain/Indicator: TA98, Metabolic Activation: NONE, Method: STANDARD PLATE
[4] = Test System: AMES SALMONELLA TYPHIMURIUM, Strain/Indicator: TA100, Metabolic Activation: NONE, Method: STANDARD PLATE

## CC(=O)Nc1ccc2ccccc2n1
[1]
  mutagenic call: inactive; negative
Test System: AMES SALMONELLA TYPHIMURIUM, Strain/Indicator: TA98, Metabolic Activation: RAT, LIVER, S-9, KANECHLOR 500, Method: PREINCUBATION
  mutagenic call: inactive; negative
[2]
  mutagenic call: inactive; negative
Test System: AMES SALMONELLA TYPHIMURIUM, Strain/Indicator: TA100, Metabolic Activation: RAT, LIVER, S-9, KANECHLOR 500, Method: PREINCUBATION
  mutagenic call: inactive; negative

## CCCN(C(=O)CCCl)c1snc2ccccc12
[3]
  mutagenic call: inactive; negative
Test System: AMES SALMONELLA TYPHIMURIUM, Strain/Indicator: TA98, Metabolic Activation: S-9, Method: STANDARD PLATE
  mutagenic call: inactive; negative
[4]
  mutagenic call: inactive; negative
Test System: AMES SALMONELLA TYPHIMURIUM, Strain/Indicator: TA100, Metabolic Activation: S-9, Method: STANDARD PLATE
  mutagenic call: inactive; negative
Test System: AMES SALMONELLA TYPHIMURIUM, Strain/Indicator: TA1535, Metabolic Activation: NONE, Method: STANDARD PLATE
  mutagenic call: active; positive
Test System: AMES SALMONELLA TYPHIMURIUM, Strain/Indicator: TA1535, Metabolic Activation: S-9, Method: STANDARD PLATE
  mutagenic call: active; positive
Test System: AMES SALMONELLA TYPHIMURIUM, Strain/Indicator: TA1537, Metabolic Activation: NONE, Method: STANDARD PLATE
  mutagenic call: inactive; negative
Test System: AMES SALMONELLA TYPHIMURIUM, Strain/Indicator: TA1537, Metabolic Activation: S-9, Method: STANDARD PLATE
  mutagenic call: inactive; negative

## CCCCN(CCC(=O)OC)N=O
Test System: AMES SALMONELLA TYPHIMURIUM, Strain/Indicator: TA1535, Metabolic Activation: RAT, LIVER, S-9, KC500 OR PHENOBARBITAL, Method: LIQUID SUSPENSION
  mutagenic call: active; positive

## O=[N+]([O-])c1cccc2c1ccc1ccccc12
Test System: AMES SALMONELLA TYPHIMURIUM, Strain/Indicator: TA98(1,8-DNP6), Metabolic Activation: NONE, Method: STANDARD PLATE
  mutagenic call: active; positive
Test System: AMES SALMONELLA TYPHIMURIUM, Strain/Indicator: TA98(NR), Metabolic Activation: NONE, Method: STANDARD PLATE
  mutagenic call: active; positive
[3]
  mutagenic call: active; positive
[4]
  mutagenic call: active; positive
Test System: AMES SALMONELLA TYPHIMURIUM, Strain/Indicator: YG1021, Metabolic Activation: NONE, Method: STANDARD PLATE
  mutagenic call: active; positive
Test System: AMES SALMONELLA TYPHIMURIUM, Strain/Indicator: YG1024, Metabolic Activation: NONE, Method: STANDARD PLATE
  mutagenic call: active; positive
Test System: AMES SALMONELLA TYPHIMURIUM, Strain/Indicator: YG1026, Metabolic Activation: NONE, Method: STANDARD PLATE
  mutagenic call: active; positive
Test System: AMES SALMONELLA TYPHIMURIUM, Strain/Indicator: YG1029, Metabolic Activation: NONE, Method: STANDARD PLATE
  mutagenic call: active; positive

## CCN[C@H](C)C[C@@H](C)NCC.[Cl-].[Cl-].[Pt+2]
Test System: AMES SALMONELLA TYPHIMURIUM, Strain/Indicator: TA97A, Metabolic Activation: NONE, Method: STANDARD PLATE
  mutagenic call: inactive; negative
[4]
  mutagenic call: inactive; negative

## C=CC(=O)OCC(C)C
Test System: AMES SALMONELLA TYPHIMURIUM, Strain/Indicator: TA98, Metabolic Activation: HAMSTER, LIVER, S-9, AROCLOR 1254 (10%), Method: PREINCUBATION
  mutagenic call: inactive; negative
[1]
  mutagenic call: inactive; negative
Test System: AMES SALMONELLA TYPHIMURIUM, Strain/Indicator: TA98, Metabolic Activation: RAT, LIVER, S-9, AROCLOR 1254 (10%), Method: PREINCUBATION
  mutagenic call: inactive; negative
Test System: AMES SALMONELLA TYPHIMURIUM, Strain/Indicator: TA100, Metabolic Activation: HAMSTER, LIVER, S-9, AROCLOR 1254 (10%), Method: PREINCUBATION
  mutagenic call: inactive; negative
[2]
  mutagenic call: inactive; negative
Test System: AMES SALMONELLA TYPHIMURIUM, Strain/Indicator: TA100, Metabolic Activation: RAT, LIVER, S-9, AROCLOR 1254 (10%), Method: PREINCUBATION
  mutagenic call: inactive; negative
Test System: AMES SALMONELLA TYPHIMURIUM, Strain/Indicator: TA1535, Metabolic Activation: HAMSTER, LIVER, S-9, AROCLOR 1254 (10%), Method: PREINCUBATION
  mutagenic call: inactive; negative
Test System: AMES SALMONELLA TYPHIMURIUM, Strain/Indicator: TA1535, Metabolic Activation: NONE, Method: PREINCUBATION
  mutagenic call: inactive; negative
Test System: AMES SALMONELLA TYPHIMURIUM, Strain/Indicator: TA1535, Metabolic Activation: RAT, LIVER, S-9, AROCLOR 1254 (10%), Method: PREINCUBATION
  mutagenic call: inactive; negative
Test System: AMES SALMONELLA TYPHIMURIUM, Strain/Indicator: TA1537, Metabolic Activation: HAMSTER, LIVER, S-9, AROCLOR 1254 (10%), Method: PREINCUBATION
  mutagenic call: inactive; negative
Test System: AMES SALMONELLA TYPHIMURIUM, Strain/Indicator: TA1537, Metabolic Activation: NONE, Method: PREINCUBATION
  mutagenic call: inactive; negative
Test System: AMES SALMONELLA TYPHIMURIUM, Strain/Indicator: TA1537, Metabolic Activation: RAT, LIVER, S-9, AROCLOR 1254 (10%), Method: PREINCUBATION
  mutagenic call: inactive; negative

## Cc1cc(-c2ccc(N=Nc3c(N)c(C)cc(S(=O)(=O)O)c3N)c(C)c2)ccc1N=Nc1ccc(O)c(C(=O)O)c1
Test System: AMES SALMONELLA TYPHIMURIUM, Strain/Indicator: TA1538, Metabolic Activation: RAT, LIVER, S-9, AROCLOR 1254, Method: STANDARD PLATE
  mutagenic call: active; positive

## CN(OC(=O)c1ccccc1)c1ccc(N=Nc2ccccc2)cc1
Test System: AMES SALMONELLA TYPHIMURIUM, Strain/Indicator: TA98, Metabolic Activation: RAT, LIVER, S-9, KC500 OR PHENOBARBITAL, Method: LIQUID SUSPENSION
  mutagenic call: active; positive
Test System: AMES SALMONELLA TYPHIMURIUM, Strain/Indicator: TA100, Metabolic Activation: RAT, LIVER, S-9, KC500 OR PHENOBARBITAL, Method: LIQUID SUSPENSION
  mutagenic call: active; positive

## O=C(O)COc1ccc(C(=O)c2cccs2)c(Cl)c1Cl
Test System: AMES SALMONELLA TYPHIMURIUM, Strain/Indicator: TA100(FR1), Metabolic Activation: NONE, Method: STANDARD PLATE
  mutagenic call: inactive; negative
Test System: AMES SALMONELLA TYPHIMURIUM, Strain/Indicator: TA100(FR1), Metabolic Activation: RAT, LIVER, S-9, PHENOBARBITAL AND 3-METHYLCHOLANTHRENE, Method: STANDARD PLATE
  mutagenic call: inactive; negative
[4]
  mutagenic call: inactive; negative
Test System: AMES SALMONELLA TYPHIMURIUM, Strain/Indicator: TA100, Metabolic Activation: RAT, LIVER, S-9, PHENOBARBITAL AND 3-METHYLCHOLANTHRENE, Method: STANDARD PLATE
  mutagenic call: inactive; negative
Test System: CHINESE HAMSTER V-79, Strain/Indicator: V-79/6-THIOGUANINE, Metabolic Activation: NONE
  mutagenic call: inactive; negative
Test System: CHINESE HAMSTER V-79, Strain/Indicator: V-79/6-THIOGUANINE, Metabolic Activation: RAT, LIVER, HEPATOCYTES (SHERMAN OR SPRAGUE-DAWLEY RATS)
  mutagenic call: inactive; negative
Test System: CHINESE HAMSTER V-79, Strain/Indicator: V-79/OUABAIN, Metabolic Activation: NONE
  mutagenic call: active; positive
Test System: CHINESE HAMSTER V-79, Strain/Indicator: V-79/OUABAIN, Metabolic Activation: RAT, LIVER, HEPATOCYTES (SHERMAN OR SPRAGUE-DAWLEY RATS)
  mutagenic call: active; positive

## CN(C)c1ccc(N=Nc2ccc3ncsc3c2)cc1
Test System: AMES SALMONELLA TYPHIMURIUM, Strain/Indicator: TA98, Metabolic Activation: RAT, LIVER, S-9, AROCLOR 1254, Method: PREINCUBATION
  mutagenic call: active; positive
Test System: AMES SALMONELLA TYPHIMURIUM, Strain/Indicator: TA98, Metabolic Activation: RAT, LIVER, S-9, AROCLOR, Method: PREINCUBATION
  mutagenic call: active; positive
Test System: AMES SALMONELLA TYPHIMURIUM, Strain/Indicator: TA98, Metabolic Activation: RAT, LIVER, S-9, AROCLOR, Method: STANDARD PLATE
  mutagenic call: active; positive
Test System: AMES SALMONELLA TYPHIMURIUM, Strain/Indicator: TA98, Metabolic Activation: RAT, LIVER, S-9, Method: PREINCUBATION
  mutagenic call: active; positive
Test System: UDS RAT HEPATOCYTES, Strain/Indicator: THY INCORP, Metabolic Activation: NONE, Method: AUTORADIOGRAPHY
  mutagenic call: active; positive
Test System: UDS RAT HEPATOCYTES, Strain/Indicator: THY INCORP, Metabolic Activation: NONE, Method: IN VIVO
  mutagenic call: active; positive
Test System: UDS RODENT HEPATOCYTES, Strain/Indicator: THY INCORP (NON-S-PHASE), Metabolic Activation: NONE, Method: AUTORADIOGRAPHY
  mutagenic call: active; positive
